Measured values taken from patent publication US7034035B2, “Fungicidal mono-, bi-, and tri-cycloheteroalkyl amides and their compositions, methods of use and preparation” (priority 1999, dated 2006).

Key:
Ustilago maydis (USTIMA) = assay: microbe, parasite or virus in culture; format: cell-based
[1] = tested on: Rhizoctonia solani (RHIZSO); assay: microbe, parasite or virus in culture; format: cell-based
Also: test concentration or dose not given here.

SMILES: COc1ccccc1CNC(=O)c1ncccc1O [Compound 224]
- USTIMA in vitro Growth Inhibition (Ustilago maydis (USTIMA)): − (key: +: at least 80% growth inhibition; −: less than 80% growth inhibition)
- RHIZSO in vitro Growth Inhibition [1]: − (key: +: at least 80% growth inhibition; −: less than 80% growth inhibition)

SMILES: C[C@H](NC(=O)c1ncccc1O)c1cccc2ccccc12 [Compound 232]
- USTIMA in vitro Growth Inhibition (Ustilago maydis (USTIMA)): − (key: +: at least 80% growth inhibition; −: less than 80% growth inhibition)
- RHIZSO in vitro Growth Inhibition [1]: − (key: +: at least 80% growth inhibition; −: less than 80% growth inhibition)

SMILES: CC(NC(=O)c1ncccc1O)c1ccc(Cl)cc1 (stereo not shown) [Compound 230]
- USTIMA in vitro Growth Inhibition (Ustilago maydis (USTIMA)): − (key: +: at least 80% growth inhibition; −: less than 80% growth inhibition)
- RHIZSO in vitro Growth Inhibition [1]: − (key: +: at least 80% growth inhibition; −: less than 80% growth inhibition)

SMILES: COc1ccnc(C(=O)NC/C=C(\C)CCC=C(C)C)c1O [Compound 242]
- USTIMA in vitro Growth Inhibition (Ustilago maydis (USTIMA)): + (key: +: at least 80% growth inhibition; −: less than 80% growth inhibition)
- RHIZSO in vitro Growth Inhibition [1]: + (key: +: at least 80% growth inhibition; −: less than 80% growth inhibition)

SMILES: COc1ccnc(C(=O)N[C@H]2O[C@@H](C)[C@@H](OC(C)=O)[C@@H](OC(C)=O)[C@@H]2OC(C)=O)c1O [Compound 333]
- USTIMA in vitro Growth Inhibition (Ustilago maydis (USTIMA)): − (key: +: at least 80% growth inhibition; −: less than 80% growth inhibition)
- RHIZSO in vitro Growth Inhibition [1]: − (key: +: at least 80% growth inhibition; −: less than 80% growth inhibition)

SMILES: COc1cccc(CNC(=O)c2ncccc2O)c1OC [Compound 227]
- USTIMA in vitro Growth Inhibition (Ustilago maydis (USTIMA)): − (key: +: at least 80% growth inhibition; −: less than 80% growth inhibition)
- RHIZSO in vitro Growth Inhibition [1]: − (key: +: at least 80% growth inhibition; −: less than 80% growth inhibition)

SMILES: COc1ccnc(C(=O)NC2CC(C)(C)CC(C)(C3CC3)C2)c1O (stereo not shown) [Compound 252]
- USTIMA in vitro Growth Inhibition (Ustilago maydis (USTIMA)): − (key: +: at least 80% growth inhibition; −: less than 80% growth inhibition)
- RHIZSO in vitro Growth Inhibition [1]: + (key: +: at least 80% growth inhibition; −: less than 80% growth inhibition)

SMILES: COc1ccnc(C(=O)N[C@@H]2CC3CC2C2C(=O)N(CC(C)C)C(=O)C32)c1O (stereo partly shown) [Compound 303]
- USTIMA in vitro Growth Inhibition (Ustilago maydis (USTIMA)): − (key: +: at least 80% growth inhibition; −: less than 80% growth inhibition)
- RHIZSO in vitro Growth Inhibition [1]: − (key: +: at least 80% growth inhibition; −: less than 80% growth inhibition)

SMILES: Cc1ccnc(C(=O)Nc2ccc(Oc3cccc(C(F)(F)F)c3)cc2)c1O [Compound 238]
- USTIMA in vitro Growth Inhibition (Ustilago maydis (USTIMA)): − (key: +: at least 80% growth inhibition; −: less than 80% growth inhibition)
- RHIZSO in vitro Growth Inhibition [1]: − (key: +: at least 80% growth inhibition; −: less than 80% growth inhibition)

SMILES: CCCCC1(C)CC(NC(=O)c2nccc(OC)c2O)CC(C)(C)C1 (stereo not shown) [Compound 253]
- USTIMA in vitro Growth Inhibition (Ustilago maydis (USTIMA)): − (key: +: at least 80% growth inhibition; −: less than 80% growth inhibition)
- RHIZSO in vitro Growth Inhibition [1]: − (key: +: at least 80% growth inhibition; −: less than 80% growth inhibition)

SMILES: COc1ccnc(C(=O)NC2C[C@H](C)O[C@@](C)(Cc3ccccc3)C2)c1O (stereo partly shown) [Compound 312]
- USTIMA in vitro Growth Inhibition (Ustilago maydis (USTIMA)): − (key: +: at least 80% growth inhibition; −: less than 80% growth inhibition)
- RHIZSO in vitro Growth Inhibition [1]: − (key: +: at least 80% growth inhibition; −: less than 80% growth inhibition)

SMILES: Cc1cc(C)cc(NC(=O)c2ncccc2O)c1 [Compound 215]
- USTIMA in vitro Growth Inhibition (Ustilago maydis (USTIMA)): − (key: +: at least 80% growth inhibition; −: less than 80% growth inhibition)
- RHIZSO in vitro Growth Inhibition [1]: − (key: +: at least 80% growth inhibition; −: less than 80% growth inhibition)

SMILES: COc1ccnc(C(=O)NC(C)c2ccc(C(F)(F)F)cc2)c1O (stereo not shown) [Compound 247]
- USTIMA in vitro Growth Inhibition (Ustilago maydis (USTIMA)): − (key: +: at least 80% growth inhibition; −: less than 80% growth inhibition)
- RHIZSO in vitro Growth Inhibition [1]: − (key: +: at least 80% growth inhibition; −: less than 80% growth inhibition)

SMILES: CCCCC1(C)CCCC(NC(=O)c2nccc(OC)c2O)C1 (stereo not shown) [Compound 254]
- USTIMA in vitro Growth Inhibition (Ustilago maydis (USTIMA)): − (key: +: at least 80% growth inhibition; −: less than 80% growth inhibition)
- RHIZSO in vitro Growth Inhibition [1]: − (key: +: at least 80% growth inhibition; −: less than 80% growth inhibition)

SMILES: O=C(Nc1ccc(Oc2ccc(C(F)(F)F)cc2)cc1)c1ncccc1O [Compound 217]
- USTIMA in vitro Growth Inhibition (Ustilago maydis (USTIMA)): − (key: +: at least 80% growth inhibition; −: less than 80% growth inhibition)
- RHIZSO in vitro Growth Inhibition [1]: − (key: +: at least 80% growth inhibition; −: less than 80% growth inhibition)

SMILES: COc1ccnc(C(=O)NC2CC(C)(C)C(OC(=O)CC(C)C)C(C)(C)C2)c1O (stereo not shown) [Compound 267]
- USTIMA in vitro Growth Inhibition (Ustilago maydis (USTIMA)): + (key: +: at least 80% growth inhibition; −: less than 80% growth inhibition)
- RHIZSO in vitro Growth Inhibition [1]: − (key: +: at least 80% growth inhibition; −: less than 80% growth inhibition)

SMILES: O=C(Nc1cccc(C(F)(F)F)c1)c1ncccc1O [Compound 214]
- USTIMA in vitro Growth Inhibition (Ustilago maydis (USTIMA)): − (key: +: at least 80% growth inhibition; −: less than 80% growth inhibition)
- RHIZSO in vitro Growth Inhibition [1]: − (key: +: at least 80% growth inhibition; −: less than 80% growth inhibition)

SMILES: COc1ccnc(C(=O)NC2C[C@H](C)C[C@H](c3ccccn3)C2)c1O (stereo partly shown) [Compound 259]
- USTIMA in vitro Growth Inhibition (Ustilago maydis (USTIMA)): − (key: +: at least 80% growth inhibition; −: less than 80% growth inhibition)
- RHIZSO in vitro Growth Inhibition [1]: − (key: +: at least 80% growth inhibition; −: less than 80% growth inhibition)

SMILES: COc1ccnc(C(=O)NC2CC3CCC2C3)c1O (stereo not shown) [Compound 287]
- USTIMA in vitro Growth Inhibition (Ustilago maydis (USTIMA)): − (key: +: at least 80% growth inhibition; −: less than 80% growth inhibition)
- RHIZSO in vitro Growth Inhibition [1]: + (key: +: at least 80% growth inhibition; −: less than 80% growth inhibition)

SMILES: CCCCCCCCCNC(=O)c1ncccc1O [Compound 201]
- USTIMA in vitro Growth Inhibition (Ustilago maydis (USTIMA)): − (key: +: at least 80% growth inhibition; −: less than 80% growth inhibition)
- RHIZSO in vitro Growth Inhibition [1]: − (key: +: at least 80% growth inhibition; −: less than 80% growth inhibition)

SMILES: O=C(NCc1ccc(Cl)cc1)c1ncccc1O [Compound 220]
- USTIMA in vitro Growth Inhibition (Ustilago maydis (USTIMA)): + (key: +: at least 80% growth inhibition; −: less than 80% growth inhibition)
- RHIZSO in vitro Growth Inhibition [1]: + (key: +: at least 80% growth inhibition; −: less than 80% growth inhibition)

SMILES: COc1ccnc(C(=O)NC2CCN(Cc3ccc(C)cc3)CC2)c1O [Compound 306]
- USTIMA in vitro Growth Inhibition (Ustilago maydis (USTIMA)): − (key: +: at least 80% growth inhibition; −: less than 80% growth inhibition)
- RHIZSO in vitro Growth Inhibition [1]: − (key: +: at least 80% growth inhibition; −: less than 80% growth inhibition)

SMILES: COc1ccnc(C(=O)NCC(C)(C)Sc2ncc(C(F)(F)F)cc2Cl)c1O [Compound 244]
- USTIMA in vitro Growth Inhibition (Ustilago maydis (USTIMA)): − (key: +: at least 80% growth inhibition; −: less than 80% growth inhibition)
- RHIZSO in vitro Growth Inhibition [1]: − (key: +: at least 80% growth inhibition; −: less than 80% growth inhibition)

SMILES: CC(=O)OC1CCC(NC(=O)c2ncccc2O)CC1 (stereo not shown) [Compound 209]
- USTIMA in vitro Growth Inhibition (Ustilago maydis (USTIMA)): − (key: +: at least 80% growth inhibition; −: less than 80% growth inhibition)
- RHIZSO in vitro Growth Inhibition [1]: − (key: +: at least 80% growth inhibition; −: less than 80% growth inhibition)

SMILES: CC(NC(=O)c1ncccc1O)c1ccccc1 (stereo not shown) [Compound 229]
- USTIMA in vitro Growth Inhibition (Ustilago maydis (USTIMA)): − (key: +: at least 80% growth inhibition; −: less than 80% growth inhibition)
- RHIZSO in vitro Growth Inhibition [1]: − (key: +: at least 80% growth inhibition; −: less than 80% growth inhibition)

SMILES: O=C(NCCc1ccc(Cl)cc1)c1ncccc1O [Compound 233, N-(2-(4-Chlorophenyl)Ethyl)-3-Hydroxypyridine-2-Carboxamide]
- USTIMA in vitro Growth Inhibition (Ustilago maydis (USTIMA)): + (key: +: at least 80% growth inhibition; −: less than 80% growth inhibition)
- RHIZSO in vitro Growth Inhibition [1]: − (key: +: at least 80% growth inhibition; −: less than 80% growth inhibition)

SMILES: COc1ccnc(C(=O)N[C@H]2CO[C@@](C)(C(C)CC3=C(C)CCCC3(C)C)OC2)c1O (stereo partly shown) [Compound 318]
- USTIMA in vitro Growth Inhibition (Ustilago maydis (USTIMA)): − (key: +: at least 80% growth inhibition; −: less than 80% growth inhibition)
- RHIZSO in vitro Growth Inhibition [1]: + (key: +: at least 80% growth inhibition; −: less than 80% growth inhibition)

SMILES: COc1ccnc(C(=O)NC2CCN(C(=O)CCc3ccccc3)CC2)c1O [Compound 309]
- USTIMA in vitro Growth Inhibition (Ustilago maydis (USTIMA)): − (key: +: at least 80% growth inhibition; −: less than 80% growth inhibition)
- RHIZSO in vitro Growth Inhibition [1]: − (key: +: at least 80% growth inhibition; −: less than 80% growth inhibition)

SMILES: COc1ccnc(C(=O)NC2CCCC2=O)c1O (stereo not shown) [Compound 249]
- USTIMA in vitro Growth Inhibition (Ustilago maydis (USTIMA)): − (key: +: at least 80% growth inhibition; −: less than 80% growth inhibition)
- RHIZSO in vitro Growth Inhibition [1]: − (key: +: at least 80% growth inhibition; −: less than 80% growth inhibition)

SMILES: COc1ccnc(C(=O)NC2CC(C)(C)C(OC(=O)c3ccccc3)C(C)(C)C2)c1O (stereo not shown) [Compound 268]
- USTIMA in vitro Growth Inhibition (Ustilago maydis (USTIMA)): − (key: +: at least 80% growth inhibition; −: less than 80% growth inhibition)
- RHIZSO in vitro Growth Inhibition [1]: − (key: +: at least 80% growth inhibition; −: less than 80% growth inhibition)

SMILES: COC(=O)C(CO)NC(=O)c1nccc(OC)c1O (stereo not shown) [Compound 340]
- USTIMA in vitro Growth Inhibition (Ustilago maydis (USTIMA)): − (key: +: at least 80% growth inhibition; −: less than 80% growth inhibition)
- RHIZSO in vitro Growth Inhibition [1]: − (key: +: at least 80% growth inhibition; −: less than 80% growth inhibition)

SMILES: COc1ccnc(C(=O)NC2CC(C)(C)C3OC3[C@H](C)[C@H]2C)c1O (stereo partly shown) [Compound 280]
- USTIMA in vitro Growth Inhibition (Ustilago maydis (USTIMA)): − (key: +: at least 80% growth inhibition; −: less than 80% growth inhibition)
- RHIZSO in vitro Growth Inhibition [1]: − (key: +: at least 80% growth inhibition; −: less than 80% growth inhibition)

SMILES: Cc1ccc(CNC(=O)c2ncccc2O)cc1 [Compound 223]
- USTIMA in vitro Growth Inhibition (Ustilago maydis (USTIMA)): + (key: +: at least 80% growth inhibition; −: less than 80% growth inhibition)
- RHIZSO in vitro Growth Inhibition [1]: − (key: +: at least 80% growth inhibition; −: less than 80% growth inhibition)

SMILES: COc1ccnc(C(=O)N[C@@H]2CC3CC2[C@@H](c2ccccc2)[C@@H]3C(=O)OC(C)C)c1O (stereo partly shown) [Compound 300]
- USTIMA in vitro Growth Inhibition (Ustilago maydis (USTIMA)): − (key: +: at least 80% growth inhibition; −: less than 80% growth inhibition)
- RHIZSO in vitro Growth Inhibition [1]: + (key: +: at least 80% growth inhibition; −: less than 80% growth inhibition)

SMILES: COc1ccnc(C(=O)NC2CC(C)(C)CC(C)(C(=O)OCCC(C)(C)C)C2)c1O (stereo not shown) [Compound 261]
- USTIMA in vitro Growth Inhibition (Ustilago maydis (USTIMA)): − (key: +: at least 80% growth inhibition; −: less than 80% growth inhibition)
- RHIZSO in vitro Growth Inhibition [1]: − (key: +: at least 80% growth inhibition; −: less than 80% growth inhibition)
